Laboratory results reported in ChEMBL document CHEMBL1122874, “Orally absorbable cephalosporin antibiotics. 1. Structure-activity relationships of benzothienyl- and naphthylglycine derivatives of 7-aminodeacetoxycephalosporanic acid” (1985).
Values after ≈ are worked out from the molar mass of the structure shown.

What was measured:
Streptococcus pneumoniae [1] = experiment: Antibacterial activity against Streptococcus pneumoniae Park.
Haemophilus influenzae [2] = experiment: Antibacterial activity against resistant Haemophilus influenzae 76.; assay type: functional
Staphylococcus aureus [3] = experiment: Antibacterial activity against methicillin resistant Staphylococcus aureus S13E.; assay type: functional
Haemophilus influenzae [4] = experiment: Antibacterial activity against sensitive Haemophilus influenzae C.L.; assay type: functional
[5] = test system: Staphylococcus epidermidis; experiment: Antibacterial activity against Staph. epidermis EP11; assay type: functional
Staphylococcus aureus [6] = experiment: Antibacterial activity against penicillin G sensitive Staphylococcus aureus X1.1.; assay type: functional
Streptococcus pyogenes [7] = experiment: Antibacterial activity against Streptococcus pyogenes C203.; assay type: functional
Streptococcus = experiment: Antibacterial activity against Streptococcus group D X66.; assay type: functional
Staphylococcus aureus [8] = experiment: Antibacterial activity against penicillin G sensitive Staphylococcus aureus V41; assay type: functional
Staphylococcus aureus [9] = experiment: Antibacterial activity against methicillin resistant Staphylococcus aureus X400; assay type: functional
Streptococcus pyogenes [10] = experiment: Antibacterial activity in mice infected with Streptococcus pyogenes C203 by oral administration; assay type: functional
Streptococcus pneumoniae [11] = experiment: Antibacterial activity in mice infected with Streptococcus pneumoniae Park1; assay type: functional
Streptococcus pyogenes [12] = experiment: Antibacterial activity in mice infected with Streptococcus pyogenes C203 by subcutaneous administration; assay type: functional
Staphylococcus aureus [13] = experiment: Antibacterial activity in mice infected with Staphylococcus aureus 3055 by subcutaneous administration; assay type: functional
Streptococcus pyogenes [14] = experiment: Antibacterial activity in mice infected with Streptococcus pyogenes C203; assay type: functional
Streptococcus pneumoniae [15] = experiment: Antibacterial activity in mice infected with Streptococcus pneumoniae Park1 by subcutaneous administration; assay type: functional
Staphylococcus aureus [16] = experiment: Antibacterial activity in mice infected with Staphylococcus aureus 3055 by oral administration; assay type: functional
Streptococcus pneumoniae [17] = experiment: Antibacterial activity in mice infected with Streptococcus pneumoniae Park1 by oral administration; assay type: functional
Staphylococcus aureus [18] = experiment: Antibacterial activity in mice infected with Staphylococcus aureus 3055; assay type: functional
Streptococcus pneumoniae [19] = experiment: Antibacterial activity in mice infected with Streptococcus pneumoniae Park1 after subcutaneous administration; assay type: functional
Streptococcus pyogenes [20] = experiment: Antibacterial activity in mice infected with Streptococcus pyogenes C203 after subcutaneous administration; assay type: functional
Streptococcus pyogenes [21] = experiment: Antibacterial activity in mice infected with Streptococcus pyogenes C203 after oral administration; assay type: functional
Streptococcus pneumoniae [22] = experiment: Antibacterial activity in mice infected with Streptococcus pneumoniae Park1 after oral administration; assay type: functional
Staphylococcus aureus [23] = experiment: Antibacterial activity in mice infected with Staphylococcus aureus 3055 after subcutaneous administration; assay type: functional
Staphylococcus aureus [24] = experiment: Antibacterial activity in mice infected with Staphylococcus aureus 3055 after oral administration; assay type: functional

CC1=C(C(=O)O)N2C(=O)C(NC(=O)[C@@H](N)c3cc4c(s3)CCCC4)C2SC1 (some centres undefined)
MIC (Streptococcus pneumoniae [1]): 0.25 µg/mL (≈ 0.613 µM) | MIC (Haemophilus influenzae [2]): 4 µg/mL (≈ 9.82 µM) | MIC (Staphylococcus aureus [3]): 8 µg/mL (≈ 19.6 µM) | MIC (Haemophilus influenzae [4]): 16 µg/mL (≈ 39.3 µM) | MIC [5]: 2 µg/mL (≈ 4.91 µM) | MIC (Staphylococcus aureus [6]): 0.25 µg/mL (≈ 0.613 µM) | MIC (Streptococcus pyogenes [7]): 0.06 µg/mL (≈ 0.147 µM) | MIC (Streptococcus): 64 µg/mL (≈ 157 µM) | MIC (Staphylococcus aureus [8]): 16 µg/mL (≈ 39.3 µM)

CC1=C(C(=O)O)N2C(=O)C(NC(=O)[C@H](N)c3cccc4ccccc34)C2SC1 (some centres undefined)
MIC (Streptococcus pneumoniae [1]): 2 µg/mL (≈ 5.03 µM) | MIC (Staphylococcus aureus [9]): 64 µg/mL (≈ 161 µM) | MIC (Haemophilus influenzae [2]): 2 µg/mL (≈ 5.03 µM) | MIC (Staphylococcus aureus [3]): 32 µg/mL (≈ 80.5 µM) | MIC (Haemophilus influenzae [4]): 8 µg/mL (≈ 20.1 µM) | MIC [5]: 8 µg/mL (≈ 20.1 µM) | MIC (Staphylococcus aureus [6]): 1 µg/mL (≈ 2.52 µM) | MIC (Streptococcus pyogenes [7]): 2 µg/mL (≈ 5.03 µM) | MIC (Streptococcus): 128 µg/mL (≈ 322 µM) | MIC (Staphylococcus aureus [8]): 32 µg/mL (≈ 80.5 µM)

CC1=C(C(=O)O)N2C(=O)C(NC(=O)[C@H](N)c3csc4cc(Cl)c(Cl)cc34)C2SC1 (some centres undefined)
MIC (Streptococcus pneumoniae [1]): 0.5 µg/mL (≈ 1.06 µM) | MIC (Staphylococcus aureus [9]): 64 µg/mL (≈ 135 µM) | MIC (Haemophilus influenzae [2]): 1 µg/mL (≈ 2.12 µM) | MIC (Staphylococcus aureus [3]): 4 µg/mL (≈ 8.47 µM) | MIC (Haemophilus influenzae [4]): 4 µg/mL (≈ 8.47 µM) | MIC [5]: 4 µg/mL (≈ 8.47 µM) | MIC (Staphylococcus aureus [6]): 1 µg/mL (≈ 2.12 µM) | MIC (Streptococcus pyogenes [7]): 0.25 µg/mL (≈ 0.529 µM) | MIC (Staphylococcus aureus [8]): 8 µg/mL (≈ 16.9 µM)

CC1=C(C(=O)O)N2C(=O)C(NC(=O)[C@H](N)c3csc4ccc(Cl)cc34)C2SC1 (some centres undefined)
MIC (Streptococcus pneumoniae [1]): 0.25 µg/mL (≈ 0.571 µM) | MIC (Staphylococcus aureus [9]): 16 µg/mL (≈ 36.5 µM) | MIC (Haemophilus influenzae [2]): 0.5 µg/mL (≈ 1.14 µM) | MIC (Staphylococcus aureus [3]): 2 µg/mL (≈ 4.57 µM) | MIC [5]: 4 µg/mL (≈ 9.13 µM) | MIC (Staphylococcus aureus [6]): 0.5 µg/mL (≈ 1.14 µM) | MIC (Streptococcus pyogenes [7]): 0.125 µg/mL (≈ 0.285 µM) | MIC (Streptococcus): 64 µg/mL (≈ 146 µM) | MIC (Staphylococcus aureus [8]): 4 µg/mL (≈ 9.13 µM)

COc1ccc2cc([C@@H](N)C(=O)NC3C(=O)N4C(C(=O)O)=C(C)CSC34)ccc2c1 (some centres undefined)
MIC (Streptococcus pneumoniae [1]): 0.125 µg/mL (≈ 0.292 µM) | MIC (Staphylococcus aureus [9]): 64 µg/mL (≈ 150 µM) | MIC (Haemophilus influenzae [2]): 4 µg/mL (≈ 9.36 µM) | MIC (Staphylococcus aureus [3]): 16 µg/mL (≈ 37.4 µM) | MIC (Haemophilus influenzae [4]): 16 µg/mL (≈ 37.4 µM) | MIC [5]: 4 µg/mL (≈ 9.36 µM) | MIC (Staphylococcus aureus [6]): 0.25 µg/mL (≈ 0.585 µM) | MIC (Streptococcus pyogenes [7]): 0.125 µg/mL (≈ 0.292 µM) | MIC (Staphylococcus aureus [8]): 16 µg/mL (≈ 37.4 µM)

CC1=C(C(=O)O)N2C(=O)C(NC(=O)[C@H](N)c3csc4ccc(F)cc34)C2SC1 (some centres undefined)
MIC (Streptococcus pneumoniae [1]): 1 µg/mL (≈ 2.37 µM) | MIC (Staphylococcus aureus [9]): 64 µg/mL (≈ 152 µM) | MIC (Haemophilus influenzae [2]): 4 µg/mL (≈ 9.49 µM) | MIC (Staphylococcus aureus [3]): 8 µg/mL (≈ 19 µM) | MIC (Haemophilus influenzae [4]): 4 µg/mL (≈ 9.49 µM) | MIC [5]: 8 µg/mL (≈ 19 µM) | MIC (Staphylococcus aureus [6]): 1 µg/mL (≈ 2.37 µM) | MIC (Streptococcus pyogenes [7]): 0.25 µg/mL (≈ 0.593 µM) | MIC (Streptococcus): 128 µg/mL (≈ 304 µM) | MIC (Staphylococcus aureus [8]): 8 µg/mL (≈ 19 µM)

CC1=C(C(=O)O)N2C(=O)C(NC(=O)[C@@H](N)c3cc4cc(Cl)ccc4s3)C2SC1 (some centres undefined)
MIC (Streptococcus pneumoniae [1]): 0.25 µg/mL (≈ 0.571 µM) | MIC (Haemophilus influenzae [2]): 4 µg/mL (≈ 9.13 µM) | MIC (Staphylococcus aureus [3]): 16 µg/mL (≈ 36.5 µM) | MIC (Haemophilus influenzae [4]): 64 µg/mL (≈ 146 µM) | MIC [5]: 2 µg/mL (≈ 4.57 µM) | MIC (Staphylococcus aureus [6]): 0.25 µg/mL (≈ 0.571 µM) | MIC (Streptococcus pyogenes [7]): 0.125 µg/mL (≈ 0.285 µM) | MIC (Staphylococcus aureus [8]): 8 µg/mL (≈ 18.3 µM)

CC1=C(C(=O)O)N2C(=O)C(NC(=O)[C@@H](N)c3cc4ccccc4s3)C2SC1 (some centres undefined)
MIC (Streptococcus pneumoniae [1]): 2 µg/mL (≈ 4.96 µM) | ED50 (Streptococcus pyogenes [10]): 2.3 mg/kg | MIC (Haemophilus influenzae [2]): 1 µg/mL (≈ 2.48 µM) | MIC (Streptococcus pneumoniae [11]): 1 µg/mL (≈ 2.48 µM) | ED50 (Streptococcus pyogenes [12]): 2.6 mg/kg | MIC (Haemophilus influenzae [4]): 32 µg/mL (≈ 79.3 µM) | MIC [5]: 2 µg/mL (≈ 4.96 µM) | ED50 (Staphylococcus aureus [13]): 0.13 mg/kg | MIC (Staphylococcus aureus [6]): 0.5 µg/mL (≈ 1.24 µM) | MIC (Streptococcus pyogenes [7]): 0.5 µg/mL (≈ 1.24 µM) | MIC (Streptococcus pyogenes [14]): 0.25 µg/mL (≈ 0.62 µM) | ED50 (Streptococcus pneumoniae [15]): 15 mg/kg | ED50 (Staphylococcus aureus [16]): 0.13 mg/kg | ED50 (Streptococcus pneumoniae [17]): 31 mg/kg | MIC (Staphylococcus aureus [18]): 0.25 µg/mL (≈ 0.62 µM)

CC1=C(C(=O)O)N2C(=O)C(NC(=O)[C@@H](N)c3csc4ccccc34)C2SC1 (some centres undefined)
ED50 (Streptococcus pneumoniae [19]): 18 mg/kg | ED50 (Streptococcus pyogenes [20]): 2.3 mg/kg | MIC (Streptococcus pneumoniae [1]): 0.5 µg/mL (≈ 1.24 µM) | MIC (Haemophilus influenzae [2]): 0.5 µg/mL (≈ 1.24 µM) | ED50 (Streptococcus pyogenes [21]): 1.7 mg/kg | MIC (Streptococcus pneumoniae [11]): 1 µg/mL (≈ 2.48 µM) | MIC (Haemophilus influenzae [4]): 2 µg/mL (≈ 4.96 µM) | MIC (Staphylococcus aureus [6]): 1 µg/mL (≈ 2.48 µM) | MIC (Streptococcus pyogenes [7]): 0.5 µg/mL (≈ 1.24 µM) | MIC (Streptococcus pyogenes [14]): 0.5 µg/mL (≈ 1.24 µM) | ED50 (Streptococcus pneumoniae [22]): 16 mg/kg | ED50 (Staphylococcus aureus [23]): 0.4 mg/kg | MIC (Streptococcus): 128 µg/mL (≈ 317 µM) | ED50 (Staphylococcus aureus [24]): 0.6 mg/kg | MIC (Staphylococcus aureus [18]): 1 µg/mL (≈ 2.48 µM)

N[C@@H](C(=O)N[C@@H]1C(=O)N2C(C(=O)O)=C(Cl)CS[C@H]12)c1ccccc1 [CEFACLOR ANHYDROUS]
ED50 (Streptococcus pyogenes [20]): 1.4 mg/kg | ED50 (Streptococcus pyogenes [21]): 0.8 mg/kg | MIC (Streptococcus pneumoniae [11]): 2 µg/mL (≈ 5.44 µM) | ED50 (Staphylococcus aureus [13]): 0.03 mg/kg | MIC (Streptococcus pyogenes [14]): 0.25 µg/mL (≈ 0.68 µM) | ED50 (Streptococcus pneumoniae [15]): 11.5 mg/kg | ED50 (Staphylococcus aureus [16]): 0.13 mg/kg | ED50 (Streptococcus pneumoniae [17]): 10.7 mg/kg | MIC (Staphylococcus aureus [18]): 1 µg/mL (≈ 2.72 µM)

CC1=C(C(=O)O)N2C(=O)[C@@H](NC(=O)[C@H](N)c3ccccc3)[C@H]2SC1 [CEPHALEXIN ANHYDROUS]
ED50 (Streptococcus pyogenes [20]): 2.9 mg/kg | MIC (Streptococcus pneumoniae [1]): 1 µg/mL (≈ 2.88 µM) | ED50 (Streptococcus pyogenes [21]): 3.3 mg/kg | ED50 (Staphylococcus aureus [13]): 0.2 mg/kg | MIC (Staphylococcus aureus [6]): 4 µg/mL (≈ 11.5 µM) | MIC (Streptococcus pyogenes [7]): 0.5 µg/mL (≈ 1.44 µM) | MIC (Streptococcus pyogenes [14]): 0.5 µg/mL (≈ 1.44 µM) | ED50 (Streptococcus pneumoniae [15]): 23 mg/kg | ED50 (Staphylococcus aureus [16]): 0.34 mg/kg | ED50 (Streptococcus pneumoniae [17]): 51 mg/kg | MIC (Staphylococcus aureus [18]): 1 µg/mL (≈ 2.88 µM)
